We go through two molecules from patent US20160031839A1, “ARGININE […] INHIBITORS AND USES THEREOF” (EPIZYME, INC., priority 2013, published 2016).

Structures are written as SMILES. Where two headings read alike, the source gives them in different places.

The test deals with T1, CARM1 (PRMT4) (Homo sapiens, UniProt Q86X55).
T1 construct: Flag-CARM1-His was eluted with 200 ug/ml FLAG peptide in buffer A; made in house; host or cells: HEK 293F cells (BacMam baculovirus)
T1 sequence (Q86X55 2-585 isoform Q86X55-1): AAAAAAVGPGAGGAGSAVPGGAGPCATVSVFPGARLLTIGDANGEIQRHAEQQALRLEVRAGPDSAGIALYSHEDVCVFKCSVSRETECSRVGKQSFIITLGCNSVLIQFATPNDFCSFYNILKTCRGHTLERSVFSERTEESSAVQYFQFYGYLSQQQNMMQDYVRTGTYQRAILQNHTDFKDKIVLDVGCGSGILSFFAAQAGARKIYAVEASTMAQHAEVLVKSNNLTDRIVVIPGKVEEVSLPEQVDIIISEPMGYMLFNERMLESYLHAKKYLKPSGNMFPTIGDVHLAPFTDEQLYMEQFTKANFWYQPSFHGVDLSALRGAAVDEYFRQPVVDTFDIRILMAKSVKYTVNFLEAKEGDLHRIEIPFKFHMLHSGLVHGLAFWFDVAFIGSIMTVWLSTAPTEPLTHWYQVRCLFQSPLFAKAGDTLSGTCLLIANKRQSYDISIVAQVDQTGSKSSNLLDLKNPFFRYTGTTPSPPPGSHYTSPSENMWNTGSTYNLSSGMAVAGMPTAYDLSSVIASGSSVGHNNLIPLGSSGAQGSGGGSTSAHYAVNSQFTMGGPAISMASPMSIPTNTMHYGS
Put plainly: CARM1 Biochemical Assay. The source says:
Peptide representative of human histone H3 residues 16-30 was synthesized with an N-terminal linker-affinity tag motif and a C-terminal amide cap by 21st Century Biochemicals. The peptide was purified by high-performance liquid chromatography (HPLC) to greater than 95% purity and confirmed by liquid chromatography mass spectrometry (LC-MS). The sequence was Biot-Ahx-[…]-amide and contained a monomethylated arginine at position 26 (SEQ ID NO.: 14).
Human CARM1 (PRMT4) (NM_199141.1) transcript clone was amplified from an HEK 293 cDNA library, incorporating a flanking 5′ sequence encoding a FLAG tag ([…]) (SEQ ID NO.:6) fused directly to Ala 2 of CARM1 and 3′ sequence encoding a hexa His sequence ([…]) (SEQ ID NO.: 15) fused directly to Ser 608. The gene sequence encoding isoform1 containing a deletion of amino acids 539-561 was amplified subsequently and subcloned into pFastBacMam (Viva Biotech).
Column was washed with 500 mM NaCl in buffer A and Flag-CARM1-His was eluted with 200 ug/ml FLAG peptide in buffer A. Pooled fractions were dialyzed in 20 mM Tris, 150 mM NaCl, 5% glycerol and 1 mM DTT, pH 7.8. The purity of recovered protein was 94.
General Procedure for CARM1 Enzyme Assays on Peptide Substrates.
The assays were all performed in a buffer consisting of 20 mM Bicine (pH=7.6), 1 mM TCEP, 0.005% BSG, and 0.002% Tween 20, prepared on the day of use. Compounds in 100% DMSO (1 ul) were spotted into a polypropylene 384-well V-bottom plates (Greiner) using a Platemate Plus outfitted with a 384-channel head (Thermo Scientific). DMSO (1 ul) was added to Columns 11, 12, 23, 24, rows A-H for the maximum signal control and 1 ul of SAH, a known product and inhibitor of CARM1, was added to columns 11, 12, 23, 24, rows I-P for the minimum signal control. A cocktail (40 ul) containing the CARM1 enzyme was added by Multidrop Combi (Thermo-Fisher). The compounds were allowed to incubate with CARM1 for 30 min at room temperature, then a cocktail (10 ul) containing ^3H-SAM and peptide was added to initiate the reaction (final volume=51 ul). The final concentrations of the components were as follows: CARM1 was 0.25 nM, ^3H-SAM was 30 nM, peptide was 250 nM, SAH in the minimum signal control wells was 1 mM, and the DMSO concentration was 2%. The assays were stopped by the addition of non-radiolabeled SAM (10 ul) to a final concentration of 300 uM, which dilutes the ^3H-SAM to a level where its incorporation into the peptide substrate is no longer detectable. […] The plates were then read in a PerkinElmer TopCount plate reader to measure the quantity of ^3H-labeled peptide bound to the Flashplate surface, measured as disintegrations per minute (dpm) or alternatively, referred to as counts per minute (cpm). […]

Setting [1] is: Table 2, biochemical evaluation, read-out: PRMT4 IC50 (class).
The mark [2] stands for this setting: Table 2a, numerical, single experiment or average of multiple experiments, read-out: PRMT4 IC50.

In general, IC50 refers to the point on the concentration scale where inhibition reaches its midpoint. Consider `CN(CCN)Cc1ccnn1-c1ccc(C#N)cc1` [Compound 2, 4-(5-(((2-aminoethyl)(methyl)amino)methyl)-1H-pyrazol-1-yl)benzonitrile], for which the half-inhibitory concentration (IC50) reads like this: under setting [1], > 10 µM; under setting [2], > 10 µM.
For `CN(CCN)Cc1ncoc1-c1ccc(C#N)cc1` [Compound 1, 4-(4-(((2-aminoethyl)(methyl)amino)methyl)oxazol-5-yl)benzonitrile], the IC50 is, setting by setting: under setting [1], > 10 µM; under setting [2], > 10 µM.
